In paper PMC11861483, “Genetic characterization of the AHAS mutant line K4 with resistance to AHAS-inhibitor herbicides in rapeseed (Brassica napus L.)” (Stress Biology, 2025) one finds Kd data, which are given here for one molecule.

For this assay, the target named is T1, BnAHAS3 (ZS9) (Brassica napus, UniProt P27819).
T1 construct: native, isolated and purified from total protein of ZS9 seedlings; AHAS on SDS-PAGE about 58-66 kD; immobilised on CM5 chip
T1 sequence (P27819 70-652): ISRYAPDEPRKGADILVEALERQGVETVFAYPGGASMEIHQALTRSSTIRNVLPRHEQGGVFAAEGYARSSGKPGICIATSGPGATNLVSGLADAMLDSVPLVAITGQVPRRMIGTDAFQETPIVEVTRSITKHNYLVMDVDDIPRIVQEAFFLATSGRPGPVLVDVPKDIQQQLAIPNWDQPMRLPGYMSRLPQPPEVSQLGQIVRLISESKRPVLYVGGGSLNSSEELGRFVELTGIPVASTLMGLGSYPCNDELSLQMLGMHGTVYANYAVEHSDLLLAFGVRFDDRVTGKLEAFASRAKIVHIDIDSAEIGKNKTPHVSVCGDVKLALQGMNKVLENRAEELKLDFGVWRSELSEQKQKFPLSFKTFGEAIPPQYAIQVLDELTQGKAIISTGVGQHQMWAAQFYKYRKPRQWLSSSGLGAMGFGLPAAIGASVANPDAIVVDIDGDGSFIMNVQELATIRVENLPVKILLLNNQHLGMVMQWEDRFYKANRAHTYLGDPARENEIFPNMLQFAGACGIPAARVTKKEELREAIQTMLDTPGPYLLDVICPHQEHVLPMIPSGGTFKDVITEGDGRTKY
Put plainly: surface plasmon resonance (Biacore T200, CM5 chip), kinetic fit kd/ka. The format is binding. The settings on record: read-out: Tribenuron-methyl / KD. The text has this: surface plasmon resonance (Biacore T200, CM5 chip), kinetic fit kd/ka on BnAHAS3 (ZS9)
(In general: Surface plasmon resonance follows binding to a sensor surface in real time, without labels.)

For the molecule `COC(=O)c1ccccc1S(=O)(=O)NC(=O)N(C)c1nc(C)nc(OC)n1` [tribenuron-methyl], the Kd came out at 33 µM.
